Measurements reported in patent publication US9381254B2, “Methods for preparing polymeric reagents” (Nektar Therapeutics, priority 2005, dated 2016).
Ends that are not written are not given here.

What was measured:
diabetic db/db mice = test: In-vivo study in mice of blood-glucose lowering effects of GLP-1 polymer conjugates; design: species or system mouse; settings: for blood glucose-lowering effect: single subcutaneous dose (GLP-1 60, 120 μg; conjugates 420 μg), FIG. 14; for PD effect when compared to the 20 kiloDalton PEG conjugate: single subcutaneous dose 420 μg
Experimental: Male diabetic mice (BKS.Cg-+Lepr db/+Lepr db/01aHsd) were purchased from Harlan Laboratories, Ltd. (Jerusalem, Israel). The 8-9 week old animals (30-40 gm) were placed in mouse cages (two animals per cage), and allowed at least 48 hours of acclimatization before the start of the study.
Each compound was accurately weighed into a glass vial and dissolved in normal saline in order to prepare a concentration that would accommodate for the dose (based on GLP-1 equivalents) and the injection volume of 100 μL.
The study was divided into two phases: a feasibility phase and an evaluation phase.
In the feasibility phase, the feasibility of using diabetic db/db mice to test the effectiveness of GLP-1 was first evaluated. In carrying out the feasibility phase, several groups of mice were used wherein four mice were used in each group. Data on the baseline glucose levels were gathered for each mouse for 2-3 days prior to drug dosing. This was performed to identify any outliers in the group of animals. On the day of treatment (Day 0) each animal was weighed. A time 0 day blood sample (5 to 10 μL) was collected from the tail vein. The glucose level (mg/dL) was measured using a glucose analyzer. Each animal was then dosed subcutaneously (SC) below the skin on the back. […] The animals were then allowed to return into their cages. Blood samples of 5 to 10 μL (<0.5% of 2 mL blood volume for a 35 g mouse) were removed through a needle prick/capillary tube at the following time points: −3, −2, −1, 0, 0.04, 0.16, 0.33, 1.0, 1.16 days. Each collected blood sample was tested for its glucose level. At the end of the study, the animals were humanely euthanized by carbon-dioxide asphyxiation.
In the evaluation phase, the results from the feasibility phase were used to select the appropriate doses required to attain a sustained delivery of GLP-1 for a 3-5 day effect. In carrying out the evaluation phase, eight mice were used in each group. Data on the baseline glucose levels were gathered for each mouse three days prior to drug dosing. On the day of treatment (Day 0) each animal was weighed. A time 0 day blood sample (5 to 10 μL) was collected from the tail vein. The glucose level (mg/dL) was measured using a glucose analyzer. Each animal was then dosed subcutaneously (SC) below the skin on the back. […] The animals were then allowed to return into their cages. Blood samples of 5 to 10 μL (<0.5% of 2 mL blood volume for a 35 g mouse) were removed through a needle prick/capillary tube at the following time points: −3, −2, −1, 0, 0.04, 0.16, 0.33, 0.5, 1, 2, 3, 6 days. Each collected blood sample was tested for its glucose level. Food was withdrawn from the animals for the first four hours after dosing. At the end of the study, the animals were humanely euthanized by carbon-dioxide asphyxiation.

[1] = Cleavable nature of GLP-1 conjugate in aqueous media (50 mM Tris, pH 10, overnight at 50° C.), SDS-PAGE / reverse phase HPLC; assay type: physicochemical; settings: 50 mM Tris solution
Experimental: The column was a 100 mm×2.1 mm ID Betasil C18 column with 5 μm particles, available from Thermo Electron Corp. Reverse phase HPLC used a mobile phase of 0.1% TFA in deionized water (solution C) and 0.1% TFA in acetonitrile (solution D) conducted at 37° C. The gradient used for reverse phase HPLC was as follows: for time 0.00 to 20.00 minutes, 35% of the mobile phase contained solution D; for time 20.00 to 21.00 minutes, 55% of the mobile phase contained solution D; for time 21.00 to 23.00 minutes, 80% of the mobile phase contained solution D; for time 23.00 to 24.00 minutes, 80% of the mobile phase contained solution D; for time 24.00 to 25.00 minutes, 35% of the mobile phase contained solution D; for time 25.00 and above, 35% of mobile phase contained solution D.

Row | Substance | blood glucose-lowering effect (diabetic db/db mice) | PD effect when compared to the 20 kiloDalton PEG conjugate (diabetic db/db mice) | clearance from the mouse (from pharmacodynamic measurements) (diabetic db/db mice; subcutaneous) | release of GLP-1 from the conjugate [1]
1 | G2PEG2Fmoc20K-Lys-GLP-1: G2PEG2Fmoc20k-NHS covalently and releasably attached to a lysine position of GLP-1 (HAEGTFTSDVSSYLEGQAAKEFIAWLVKGR; ends and bridges not checked; also: releasable G2PEG2Fmoc20K PEG on a lysine; UniProt P01275 98-127, looked up) | confirmed | – | – | –
2 | G2PEG2Fmoc40K-Lys-GLP-1: G2PEG2Fmoc40k-NHS covalently and releasably attached to a lysine position of GLP-1 (HAEGTFTSDVSSYLEGQAAKEFIAWLVKGR; ends and bridges not checked; also: releasable G2PEG2Fmoc40K PEG on a lysine; UniProt P01275 98-127, looked up) | confirmed | small but extended PD effect | – | –
3 | Glucagon-like Peptide I (7-36, “GLP-1”) [reference compound] | confirmed | – | cleared rapidly | –
4 | G2PEG2Fmoc40k-N^ter-GLP-1 | – | small but extended PD effect | – | complete release
